Data from US8604016B2, “Heterocyclic inhibitors of glutaminase” (Calithera Biosciences Inc., priority 2011, dated 2013).
≈ marks a conversion by molar mass, not a printed value.

Tests used:
[1] = target: T1, recombinant form of Glutaminase 1 (GAC) (Homo sapiens, UniProt O94925); experiment: Recombinant Enzyme Assay - Time Dependence (60 minutes enzyme/compound preincubation); type: biochemical
Protocol: The enzyme/compound mix was sealed with sealing foil (USA Scientific) and allowed to incubate, with mild agitation, for 60 minutes at 20° C. Enzymatic reaction was started with the addition of 50 μL of substrate solution (50 mM Tris-HCl pH 8.0, 0.2 mM EDTA, 150 mM K2HPO4, 0.1 mg/ml BSA, 1 mM DTT, 20 mM L-glutamine, 2 mM NAD^+, and 10 ppm antifoam) and read in a Molecular Devices M5 plate reader at 20° C. The plate reader was configured to read absorbance (λ=340 nm) in kinetic mode for 15 minutes. Data was recorded as milli-absorbance units per minute and slopes were compared to a control compound and a DMSO-only control on the same plate. Compounds with slopes less than the DMSO control were considered inhibitors and plate variability was assessed using the control compound.

[2] = Solubility (18 hr vortex mixing at room temperature, filtration, HPLC); type: physicochemical; details: thermodynamic from solid
Protocol: Ca. 1 mg portions of test article were combined with 120 μL solvent in wells of a 96×2 mL polypropylene plate. […] The contents of all wells were then filtered through a 0.45 μm GHP filter plate to yield clear filtrates. 5 μL of each filtrate was diluted into 100 μL DMF and vortex mixed to yield HPLC samples. Duplicate quantitation standards for each test article were prepared by diluting weighed portions of solid test article in measured volumes of DMF. 2 μL of each HPLC sample and quantitation standard were analyzed by HPLC using the method outlined in Table 5. Dissolved test article concentrations were calculated by peak area ratio against the appropriate quantitation standards.

[3] = target: T1, recombinant form of Glutaminase 1 (GAC); experiment: Recombinant Enzyme Assay (GAC coupled to GDH, NADH absorbance, no preincubation); type: biochemical; details: no preincubation; read-out: GAC Delta N2 IC50 no preinc
Outline: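 GAC (4 nM) in Tris-HCl pH 8.0 with 150 mM K2HPO4, EDTA, BSA, DTT, plus 4 units/ml GDH and 4 mM ADP, without preincubation. Absorbance at 340 nm was read kinetically for 15 min at 20° C. Slopes (mAU/min) were compared with DMSO-only and control-compound wells on the same plate.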

[4] = read-out: GAC Delta N2 IC50 60 min
[5] = read-out: GAC Delta N2 IC50 60 min preinc

Structure (SMILES)	IC50 [1, 4] [µM]	further results
CCCC(=O)OCN(C(=O)Cc1ccccc1)c1nnc(CCCCc2ccc(NC(=O)Cc3ccccc3)nn2)s1 [Compound 402]	–	solubility at 18 h ([2]; 50 mM citrate buffer pH 2.3, 20 °C, aqueous buffer, 50 mM Cit pH 2.3, room temperature): < 0.004 mg/mL; solubility at 18 h ([2]; 50 mM citrate buffer pH 3.3, 20 °C, aqueous buffer, 50 mM Cit pH 3.3, room temperature): < 0.004 mg/mL; solubility at 18 h ([2]; 50 mM citrate buffer pH 4.4, 20 °C, aqueous buffer, 50 mM Cit pH 4.4, room temperature): < 0.004 mg/mL; solubility at 18 h ([2]; 50 mM citrate buffer pH 5.4, 20 °C, aqueous buffer, 50 mM Cit pH 5.4, room temperature): < 0.004 mg/mL; solubility at 18 h ([2]; 20 °C, aqueous buffer, PBS, room temperature): < 0.004 mg/mL; solubility at 18 h ([2]; 20 °C, aqueous with cosolvent or surfactant or cyclodextrin, 10% CrEL/50 mM cit, room temperature): 0.157 mg/mL (≈ 268 µM); solubility at 18 h ([2]; 20 °C, aqueous with cosolvent or surfactant or cyclodextrin, 10% PS80/50 mM cit, room temperature): 0.153 mg/mL (≈ 261 µM); solubility at 18 h ([2]; 20 °C, aqueous with cosolvent or surfactant or cyclodextrin, 20% HPBCD/50 mM cit, room temperature): 0.056 mg/mL (≈ 95.4 µM); solubility at 18 h ([2]; 20 °C, aqueous with cosolvent or surfactant or cyclodextrin, 20% SBECD/50 mM cit, room temperature): 0.019 mg/mL (≈ 32.4 µM); solubility at 18 h ([2]; 20 °C, oil or lipid, Capryol 90, room temperature): 13.7 mg/mL (≈ 23300 µM); solubility at 18 h ([2]; 20 °C, oil or lipid, Capryol PGMC, room temperature): 11.2 mg/mL (≈ 19100 µM); solubility at 18 h ([2]; 20 °C, oil or lipid, Labrasol, room temperature): 31 mg/mL (≈ 52900 µM); solubility at 18 h ([2]; 20 °C, oil or lipid, canola oil, room temperature): 0.529 mg/mL (≈ 902 µM); solubility at 18 h ([2]; 20 °C, organic solvent or mixture, EtOH, room temperature): 2.96 mg/mL (≈ 5040 µM); solubility at 18 h ([2]; 20 °C, organic solvent or mixture, PEG400, room temperature): 30.2 mg/mL (≈ 51400 µM); solubility at 18 h ([2]; 20 °C, organic solvent or mixture, PG, room temperature): 1.36 mg/mL (≈ 2330 µM); solubility at 18 h ([2]; 20 °C, pH 1, simulated gastric fluid, 0.1M HCl, room temperature): < 0.004 mg/mL; solubility at 18 h ([2]; 20 °C, pH 13, aqueous buffer, 0.1M NaOH, room temperature): < 0.004 mg/mL; solubility at 18 h ([2]; 20 °C, saline or isotonic, 0.9% NaCl, room temperature): < 0.004 mg/mL; solubility at 18 h ([2]; water, room temperature (ca. 20 C)): < 0.004 mg/mL
CC(C)(C)OC(=O)NCc1cccc(CC(=O)Nc2nnc(CCCCc3ccc(NC(=O)C(O)c4cccc(Cl)c4)nn3)s2)c1 (stereo not shown) [Compound 422]	0.007	–
Cc1cccc(CNC(=O)Nc2nnc(CCCCc3nnc(NC(=O)Cc4ccccc4)s3)s2)c1 [Compound 417]	0.056	–
CNCc1cccc(CC(=O)Nc2nnc(CCCCc3nnc(NC(=O)Cc4ccccc4)s3)s2)c1 [Compound 393]	–	IC50 [1, 5]: 0.1 µM
Nc1ccc(CCCCc2nnc(NC(=O)C(O)c3cccc(Cl)c3)s2)nn1 (stereo not shown) [Compound 411]	0.22	–
CN(C)Cc1cccc(CC(=O)Nc2nnc(CCCCc3nnc(NC(=O)Cc4ccccc4)s3)s2)c1 [Compound 394]	0.088	–
NCc1cccc(CC(=O)Nc2nnc(CCCCc3nnc(NC(=O)Cc4ccccc4)s3)s2)c1 [Compound 437]	0.07	–
O=C(Cc1ccccc1)Nc1ccc(CCCCc2nnc(NC(=O)Cc3cccc(OCc4ccccn4)c3)s2)nn1 [Compound 480]	> 20	–
O=C(Cc1ccccc1)Nc1nnc(CCCCc2nnc(NC(=O)Cc3cccc(OCCN4CCOCC4)c3)s2)s1 [Compound 390]	–	IC50 [1, 5]: 0.042 µM
O=C(Cc1ccccc1)Nc1ccc(CCCCc2nnc(NC(=O)C(OC(=O)CCN3CCOCC3)c3cccc(Cl)c3)s2)nn1 (stereo not shown) [Compound 389]	–	IC50 [1, 5]: 0.084 µM
O=C(Cc1ccccc1)Nc1nnc(CCCCc2nnc(NC(=O)Cc3cccc(Cn4cccn4)c3)s2)s1 [Compound 392]	–	IC50 [1, 5]: 0.014 µM
O=C(Nc1nnc(CCCCc2nnc(NC(=O)C3Cc4cc(Cl)ccc4O3)s2)s1)C1Cc2cc(Cl)ccc2O1 (stereo not shown) [Compound 120]	–	IC50 [3]: 1.8 µM
NS(=O)(=O)c1ccc(CC(=O)Nc2nnc(CCCCc3nnc(NC(=O)Cc4ccc(S(N)(=O)=O)cc4)s3)s2)cc1 [Compound 198]	–	IC50 [3]: 0.18 µM
CC(=O)NCC(C(=O)Nc1nnc(CCCCc2nnc(NC(=O)C(CNC(C)=O)c3ccccc3)s2)s1)c1ccccc1 (stereo not shown) [Compound 266]	–	IC50 [3]: 2.2 µM
Cn1cc(CC(=O)Nc2nnc(CCSCCc3nnc(NC(=O)Cc4cn(C)c5ccccc45)s3)s2)c2ccccc21 [Compound 200]	–	IC50 [3]: 0.61 µM
COCC(C(=O)Nc1nnc(CCCCc2nnc(NC(=O)C(COC)c3ccccc3)s2)s1)c1ccccc1 (stereo not shown) [Compound 165]	–	IC50 [3]: 0.51 µM
O=C(Nc1nnc(CCSCCc2nnc(NC(=O)[C@@H]3CCCN3C(=O)C(F)(F)F)s2)s1)[C@@H]1CCCN1C(=O)C(F)(F)F [Compound 22]	–	IC50 [3]: > 50 µM
N[C@@H](CO)C(=O)Nc1nnc(CCSCCc2nnc(NC(=O)[C@@H](N)CO)s2)s1 [Compound 137]	–	IC50 [3]: > 20 µM
N#Cc1cccc(CC(=O)Nc2nnc(CCSCCc3nnc(NC(=O)Cc4cccc(C#N)c4)s3)s2)c1 [Compound 155]	–	IC50 [3]: 0.27 µM

Second part, led by results:

IC50 [1, 4] [µM]	Structure (SMILES)	further results
0.007	CC(=O)N1CCN(Cc2cc(CC(=O)Nc3nnc(CCCCc4ccc(NC(=O)Cc5ccccc5)nn4)s3)ccc2F)CC1 [Compound 528]	–
0.01	COC(C(=O)Nc1nnc(CCCCc2ccc(NC(=O)Cc3cccc(CNC(=O)OC(C)(C)C)c3)nn2)s1)c1ccccc1 (stereo not shown) [Compound 509]	–
0.43	CCCC(=O)OCN(C(=O)C(CO)c1cccc(CNC(=O)OC(C)(C)C)c1)c1nnc(CCCCc2ccc(NC(=O)Cc3ccccc3)nn2)s1 (stereo not shown) [Compound 567]	–
0.009	CC(C(=O)Nc1nnc(CCCCc2ccc(NC(=O)Cc3ccccc3)nn2)s1)c1ccc(F)c(CNC(=O)OC(C)(C)C)c1 (stereo not shown) [Compound 568]	–
0.006	Cc1ccccc1CC(=O)Nc1nnc(CCCCc2ccc(NC(=O)Cc3ccccc3F)nn2)s1 [Compound 536]	–
0.011	COC(C(=O)Nc1ccc(CCCCc2nnc(NC(=O)Cc3cccc(CNC(=O)OC(C)(C)C)c3)s2)nn1)c1ccccc1 (stereo not shown) [Compound 508]	–
0.013	CC(C)(C)OC(=O)NCc1cccc(CC(=O)Nc2nnc(CCCCc3ccc(NC(=O)C(O)(CO)c4ccccc4)nn3)s2)c1 (stereo not shown) [Compound 507]	–
0.43	CCCC(=O)OCN(C(=O)Cc1cccc(CC(=O)N2CCC(F)(F)CC2)c1)c1nnc(CCCCc2ccc(NC(=O)Cc3ccccc3)nn2)s1 [Compound 570]	–
0.004	CC(C(=O)Nc1nnc(CCCCc2ccc(NC(=O)Cc3cccc(CNC(=O)OCCF)c3)nn2)s1)c1ccccc1 (stereo not shown) [Compound 591]	–
0.019	CC(C)(C)OC(=O)N1CCN(Cc2cc(CC(=O)Nc3nnc(CCCCc4ccc(NC(=O)Cc5ccccc5)nn4)s3)ccc2F)CC1 [Compound 493]	–
0.006	CC(C)(C)OC(=O)NCc1cc(CC(=O)Nc2nnc(CCCCc3ccc(NC(=O)Cc4ccccc4)nn3)s2)ccc1F [Compound 492]	–
0.007	Cc1ccccc1CC(=O)Nc1nnc(CCCCc2ccc(NC(=O)Cc3ccccc3Cl)nn2)s1 [Compound 535]	–
0.007	O=C(Cc1ccccc1)Nc1ccc(CCCCc2nnc(NC(=O)C(O)c3ccc(-c4ccccc4)cc3OCCO)s2)nn1 (stereo not shown) [Compound 504]	–
0.032	CC(C)(C)OC(=O)NCc1cccc(CC(=O)Nc2nnc(CCCCc3ccc(NC(=O)C4(C)COC(C)(C)OC4)nn3)s2)c1 [Compound 529]	–
0.006	CN(Cc1cc(CC(=O)Nc2nnc(CCCCc3ccc(NC(=O)Cc4ccccc4)nn3)s2)ccc1F)C(=O)OC(C)(C)C [Compound 569]	–
0.007	O=C(CN1CCOCC1)NCc1ccc(CC(=O)Nc2nnc(CCCCc3ccc(NC(=O)Cc4ccccc4)nn3)s2)cc1 [Compound 442]	–
> 20	CCCC(=O)OCN(C(=O)Cc1cccc(CNC(=O)OC(C)(C)C)c1)c1nnc(CCCCc2ccc(NC(=O)Cc3ccccc3)nn2)s1 [Compound 552]	–
0.016	CC(C(=O)Nc1ccc(CCCCc2nnc(NC(=O)C(O)c3cccc(Cl)c3)s2)nn1)c1ccccc1 (stereo not shown) [Compound 468]	–
0.025	CC(C)Cc1ccc(C(C)C(=O)Nc2nnc(CCCCc3ccc(NC(=O)Cc4ccccc4)nn3)s2)cc1 (stereo not shown) [Compound 557]	–
0.007	CC(C(=O)Nc1nnc(CCCCc2ccc(NC(=O)Cc3cccc(CNC(=O)CC(O)C(F)(F)F)c3)nn2)s1)c1ccccc1 (stereo not shown) [Compound 606]	–
0.013	COC(C(=O)Nc1nnc(CCCCc2ccc(NC(=O)Cc3cccc(CNC(=O)CC(C)(O)C(F)(F)F)c3)nn2)s1)c1ccccc1 (stereo not shown) [Compound 605]	–
0.011	O=C(Nc1ccc(CCCCc2nnc(NC(=O)C(O)c3cccc(Cl)c3)s2)nn1)C(O)c1cccc(Cl)c1 (stereo not shown) [Compound 446]	–
0.005	CC(NC(=O)OC(C)(C)C)c1cc(CC(=O)Nc2ccc(CCCCc3nnc(NC(=O)Cc4ccccc4)s3)nn2)ccc1F (stereo not shown) [Compound 654]	–
0.019	O=C(Cc1ccccc1)Nc1ccc(CCCCc2nnc(NC(=O)Cc3ccc(F)c(CN4CCNCC4)c3)s2)nn1 [Compound 494]	–
0.01	CC(C(=O)Nc1ccc(CCCCc2nnc(NC(=O)Cc3ccccc3)s2)nn1)c1ccc(F)c(CN(C)C(=O)OC(C)(C)C)c1 (stereo not shown) [Compound 599]	–
0.019	CC(C(=O)Nc1ccc(CCCCc2nnc(NC(=O)C(C)c3ccccc3)s2)nn1)c1ccccc1 (stereo not shown) [Compound 613]	–
